Assay [1] addresses T1, Beta-secretase 1 (Homo sapiens, UniProt P56817). The assay can be described thus: Inhibition of BACE1 (unknown origin) after 90 mins by fluorescence assay. The note with it: for pIC50: read-out: IC50.
Assay [2] concerns the target T1, Beta-secretase 1. The assay can be described thus: Inhibition of BACE1 (unknown origin) at 10 uM after 90 mins by fluorescence assay.

Consider 20 compounds from ChEMBL document CHEMBL3400120, “Design, synthesis and biological evaluation of tasiamide B derivatives as BACE1 inhibitors” (Bioorg Med Chem, 2015).

SMILES strings stand for the structures. pIC50: −log10 of the molar value. The source made the active and inactive calls. The rule behind the calls is not given here. Numbered stars: 1 amine (or outer) side, 2 acyl side, 3 side chain; on linkers, the order of the positions; unused ones are H or OH. Square brackets hold non-standard residues; d marks the D form. Peptide text beside a SMILES is read from it. * marks the point of attachment. Ahppa(3S,4S) = O=C(C[C@H](O)[C@H](Cc1ccccc1)N[*:1])[*:2]; dNMeF = CN[C@H](Cc1ccccc1)C(=O)O; NMeQ = CN[C@@H](CCC(N)=O)C(=O)O; Cbz = O=C(OCc1ccccc1)*; Lac = C[C@H](O)C(=O)O Where only a bound is given, the exact number is not on record here.

One may read the pIC50 as the IC50 on a negative log10 scale, so that one unit is a factor of ten. The term inhibition denotes the relative decrease from the control value, in per cent.

T1 sequence (P56817 whole entry): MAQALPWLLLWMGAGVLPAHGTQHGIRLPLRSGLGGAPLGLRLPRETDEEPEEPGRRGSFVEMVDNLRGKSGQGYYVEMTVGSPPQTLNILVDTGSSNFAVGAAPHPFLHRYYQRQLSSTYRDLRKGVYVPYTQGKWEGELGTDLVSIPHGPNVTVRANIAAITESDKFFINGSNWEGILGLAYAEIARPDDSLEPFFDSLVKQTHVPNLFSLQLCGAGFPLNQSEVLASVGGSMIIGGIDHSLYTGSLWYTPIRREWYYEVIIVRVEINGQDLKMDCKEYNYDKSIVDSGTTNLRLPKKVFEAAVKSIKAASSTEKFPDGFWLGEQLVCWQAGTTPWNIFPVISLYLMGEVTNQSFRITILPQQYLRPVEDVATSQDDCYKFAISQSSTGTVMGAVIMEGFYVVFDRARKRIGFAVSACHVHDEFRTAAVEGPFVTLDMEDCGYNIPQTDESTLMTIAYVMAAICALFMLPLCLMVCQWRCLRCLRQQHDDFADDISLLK

Take `COC(=O)[C@H](CC(C)C)NC(=O)C[C@H](O)[C@H](Cc1ccccc1)NC(=O)[C@H](CCC(N)=O)N(C)C(=O)[C@@H](NC(=O)OCc1ccccc1)C(C)C`: the pIC50 on Beta-secretase 1 [1] was 5.35. Further, the inhibition at Beta-secretase 1 [2] was 75%.

On to `COC(=O)[C@@H](Cc1ccccc1)N(C)C(=O)[C@H](C)NC(=O)[C@H](CC(C)C)NC(=O)C[C@H](O)[C@H](Cc1ccccc1)NC(=O)[C@H](CCC(N)=O)N(C)C(=O)OCc1ccccc1`, for which the pIC50 at Beta-secretase 1 [1] was less than 5.00. For the same compound, the inhibition at Beta-secretase 1 [2] amounted to 49.5%.

Regarding `CC(C)C[C@H](NC(=O)C[C@H](O)[C@H](Cc1ccccc1)NC(=O)c1cccc(C(=O)N2CCCC2=O)c1)C(=O)N[C@@H](C)C(=O)N(C)[C@H](Cc1ccccc1)C(=O)OCc1ccccc1`, the pIC50 at Beta-secretase 1 [1] is less than 5.00. The inhibition at Beta-secretase 1 [2] was found to be 28.4%.

Take `CC(C)C[C@H](NC(=O)C[C@H](O)[C@H](Cc1ccccc1)NC(=O)[C@H](CCC(N)=O)N(C)C(=O)[C@@H](NC(=O)[C@H](C)O)C(C)C)C(=O)N[C@@H](C)C(=O)N(C)[C@H](Cc1ccccc1)C(=O)O` (H-[Lac]V[NMeQ][Ahppa(3S,4S)]LA[dNMeF]-OH): the pIC50 at Beta-secretase 1 [1] is 7.11.

For the compound `CC(C)C[C@H](NC(=O)C[C@H](O)[C@H](Cc1ccccc1)NC(=O)[C@@H](N)Cc1cc2ccccc2[nH]1)C(=O)N[C@@H](C)C(=O)N(C)[C@H](Cc1ccccc1)C(=O)OCc1ccccc1`, at Beta-secretase 1 [1], the pIC50 is less than 5.00. The compound also registered an inhibition at Beta-secretase 1 [2] of 33.9%.

As to `CC(C)C[C@H](NC(=O)C[C@H](O)[C@H](Cc1ccccc1)NC(=O)OC(C)(C)C)C(=O)N[C@@H](C)C(=O)N(C)[C@H](Cc1ccccc1)C(=O)OCc1ccccc1`, the pIC50 at Beta-secretase 1 [1] is less than 5.00. The inhibition against Beta-secretase 1 [2] is 4.44%.

As to `CCCN(CCC)C(=O)c1cccc(C(=O)N[C@@H](Cc2ccccc2)[C@@H](O)CC(=O)N[C@@H](CC(C)C)C(=O)N[C@@H](C)C(=O)N(C)[C@H](Cc2ccccc2)C(=O)OCc2ccccc2)n1`, the pIC50 on Beta-secretase 1 [1] was less than 5.00. The compound also returned an inhibition on Beta-secretase 1 [2] of 28.7%.

As for `COC(=O)[C@@H](Cc1ccccc1)N(C)C(=O)[C@H](C)NC(=O)[C@H](CC(C)C)NC(=O)C[C@H](O)[C@H](Cc1ccccc1)NC(=O)[C@H](CCC(N)=O)N(C)C(=O)[C@@H](NC(=O)OCc1ccccc1)C(C)C`, the pIC50 at Beta-secretase 1 [1] was 6.06. Also, the inhibition against Beta-secretase 1 [2] was 97%.

On to `COC(=O)C[C@H](O)[C@H](Cc1ccccc1)NC(=O)[C@H](CCC(N)=O)N(C)C(=O)OCc1ccccc1`, for which, on Beta-secretase 1 [1], the IC50 entry was “Not Active”. Further, the inhibition result on Beta-secretase 1 [2] is “inactive”.

For `CCCN(CCC)C(=O)c1cccc(C(=O)N[C@@H](Cc2ccccc2)[C@@H](O)CC(=O)N[C@@H](CC(C)C)C(=O)N[C@@H](C)C(=O)N(C)[C@H](Cc2ccccc2)C(=O)OCc2ccccc2)c1`, at Beta-secretase 1 [1], the pIC50 is 6.00. Moreover, the inhibition against Beta-secretase 1 [2] was 89.4%.

In the case of `CC(C)C[C@H](NC(=O)C[C@H](O)[C@H](Cc1ccccc1)NC(=O)OC(C)(C)C)C(=O)N[C@@H](C)C(=O)N(C)[C@H](Cc1ccccc1)C(=O)O`, the pIC50 on Beta-secretase 1 [1] was less than 5.00. The compound also came in with an inhibition against Beta-secretase 1 [2] of 41.7%.

For the compound `COC(=O)[C@H](C)NC(=O)[C@H](CC(C)C)NC(=O)C[C@H](O)[C@H](Cc1ccccc1)NC(=O)OC(C)(C)C`, at Beta-secretase 1 [1], the pIC50 is less than 5.00. At Beta-secretase 1 [2], the inhibition is 11.6%.

Regarding `COC(=O)[C@H](CC(C)C)NC(=O)C[C@H](O)[C@H](Cc1ccccc1)NC(=O)[C@H](CCC(N)=O)N(C)C(=O)OCc1ccccc1`, the pIC50 on Beta-secretase 1 [1] was less than 5.00. At Beta-secretase 1 [2], the inhibition was determined as 24.2%.

Turning to `CCCN(CCC)C(=O)c1cccc(C(=O)N[C@@H](Cc2ccccc2)[C@@H](O)CC(=O)N[C@@H](CC(C)C)C(=O)N[C@@H](C)C(=O)N(C)[C@H](Cc2ccccc2)C(=O)O)c1`, the pIC50 at Beta-secretase 1 [1] was 6.32. Moreover, the inhibition on Beta-secretase 1 [2] was 97.2%.

On to `COC(=O)[C@H](C)NC(=O)[C@H](CC(C)C)NC(=O)C[C@H](O)[C@H](Cc1ccccc1)NC(=O)[C@H](CCC(N)=O)N(C)C(=O)[C@@H](NC(=O)OCc1ccccc1)C(C)C` (Cbz-V[NMeQ][Ahppa(3S,4S)]LA-OMe), for which the pIC50 on Beta-secretase 1 [1] was 5.58. The compound also displayed an inhibition against Beta-secretase 1 [2] of 90.6%.

Take `CCCN(CCC)C(=O)c1cccc(C(=O)N[C@@H](Cc2ccccc2)[C@@H](O)CC(=O)N[C@@H](CC(C)C)C(=O)N[C@@H](C)C(=O)N(C)[C@H](Cc2ccccc2)C(=O)O)n1`: the pIC50 on Beta-secretase 1 [1] is less than 5.00. The compound also had an inhibition at Beta-secretase 1 [2] of 35%.

As to `COC(=O)C[C@H](O)[C@H](Cc1ccccc1)NC(=O)[C@H](CCC(N)=O)N(C)C(=O)[C@@H](NC(=O)OCc1ccccc1)C(C)C`, the pIC50 at Beta-secretase 1 [1] is less than 5.00. For the same compound, at Beta-secretase 1 [2], the inhibition was 22.1%.

As to `CC(C)C[C@H](NC(=O)C[C@H](O)[C@H](Cc1ccccc1)NC(=O)c1cccc(C(=O)N2CCCC2=O)c1)C(=O)N[C@@H](C)C(=O)N(C)[C@H](Cc1ccccc1)C(=O)O`, the pIC50 at Beta-secretase 1 [1] is less than 5.00. The inhibition at Beta-secretase 1 [2] was 35.1%.

As for `COC(=O)[C@H](C)NC(=O)[C@H](CC(C)C)NC(=O)C[C@H](O)[C@H](Cc1ccccc1)NC(=O)[C@H](CCC(N)=O)N(C)C(=O)OCc1ccccc1`, the pIC50 on Beta-secretase 1 [1] is less than 5.00. The inhibition against Beta-secretase 1 [2] amounted to 17.5%.

With `COC(=O)[C@H](CC(C)C)NC(=O)C[C@H](O)[C@H](Cc1ccccc1)NC(=O)OC(C)(C)C`, the pIC50 at Beta-secretase 1 [1] is less than 5.00. Besides, the inhibition against Beta-secretase 1 [2] is 25.8%.
